In PubChem BioAssay AID488890 (Southern Research Specialized Biocontainment Screening …, 2010):
Records with an inconclusive call do not appear. Calls of active or inactive are those of the source. No rule for the calls is given here.

The compounds below were run on Mycobacterium tuberculosis non-replicating, growth inhibition (assay: growth inhibition of non-replicating M. tuberculosis (AID 488890)).

| SMILES | IC50 |
| --- | --- |
| NC(N)=N/N=C/c1cc([N+](=O)[O-])ccc1O | 4.29 µM |
| CCOc1ccc(OCc2ccc(C(=O)OCc3ccccn3)o2)cc1 | 8.49 µM |
| O=C(COc1ccc(Nc2ccccc2)cc1)OCC(=O)N1CCCCC1 | 6.24 µM |
| COc1cccc(C(=O)N2N=C(c3ccccn3)CC2(O)C(F)(F)F)c1 (stereo not given) | 12.3 µM (inactive) |
| O=C(Oc1ccccc1)c1ccc(COC(=O)c2cnccn2)cc1 | 10.7 µM (inactive) |
| Cc1ccc(-c2nnc(COC(=O)c3cccs3)o2)cc1 | 13.8 µM (inactive) |
| O=C1C=CC(=O)N1N(c1ccccc1)c1ccccc1 | 8.68 µM |
| CCCCn1c(O)c(/C=C2/C=CC=N2)c(=O)[nH]c1=O | 1.17 µM |
| COc1ccc(CN=C2NN=C(c3ccc(Cl)cc3)CS2)cc1 | 13.8 µM (inactive) |
| Cc1nc(/N=C(\N)NC(=O)NC2CCCCC2)nc2ccccc12 | 10.3 µM (inactive) |
| C=CCc1ccc2oc(C(=O)OCC)cc(=O)c2c1O | 1.26 µM |
| Cc1c([N+](=O)[O-])cnc(Sc2ccccc2)c1[N+](=O)[O-] | 6.43 µM |
| CCc1nnc(NC(=O)CN2CCN(c3ccccc3F)CC2)s1 | 29.2 µM (inactive) |
| Clc1ccc(OCCOCCN2CCc3ccccc3C2)c(Cl)c1 | 11.2 µM (inactive) |
| OC(CNCC1CCCO1)Cn1c2ccc(Cl)cc2c2cc(Cl)ccc21 (stereo not given) | 8.38 µM |
| O=c1oc(-c2cccs2)nc2c1cnn2-c1ccccc1 | 0.43 µM |
| CCCC(=O)Nc1cccc(-c2nc3ccccc3c(=O)o2)c1 | 0.97 µM |
| CCCn1nnnc1NCc1ccc(CC)cc1 | 8.41 µM |
| NC(=O)N/N=C\c1cc(Br)ccc1O | 4.2 µM |
| CCCC(C)C(=O)Nc1ccc(Cl)cn1 (stereo not given) | 10.3 µM (inactive) |
| O=C(Oc1cccc2cccnc12)c1cccc([N+](=O)[O-])c1 | 3 µM |
| O=C(C1CCN(C2CC(=O)N(Cc3ccccc3)C2=O)CC1)N1CCCCCC1 (stereo not given) | 7.22 µM |
| CCc1nonc1NC(=O)COc1ccc(Cl)c(C)c1 | 9.9 µM |
| c1ccc(/N=C2\N=C(Nc3ccccn3)c3ccccc32)nc1 | < 0.1 µM |

| SMILES | IC50 |
| --- | --- |
| O=C(N/N=C\c1ccc([N+](=O)[O-])o1)c1cncc(Br)c1 | 8.55 µM |
| CCCn1c(NC(=O)c2ccccc2)nc2ccccc21 | 8.74 µM |
| O=C(CCc1ccccc1)NC1C2CC3CC(C2)CC1C3 (stereo not given) | 4.71 µM |
| O=C(Nc1ccc2c(c1)CCC2)c1ccc(Br)o1 | 7.88 µM |
| C=CCc1ccc(OCC(O)CN2CCN(Cc3ccc(Cl)cc3)CC2)c(OC)c1 (stereo not given) | 15.7 µM (inactive) |
| Cc1ccc(NC(=O)CO/N=C/c2ccccc2C)c(C)c1 | 13 µM (inactive) |
| CC(C)(C)c1cc(CN2CCN(CCO)CC2)cc(C(C)(C)C)c1O | 3.78 µM |
| CC(=O)N1CCN(C(=O)CC2OC(=O)c3ccccc32)CC1 (stereo not given) | 18.9 µM (inactive) |
| Cc1c(CN2CCC(CO)(CCOc3ccccc3)CC2)[nH]c2ccc(Cl)cc12 | 15.9 µM (inactive) |
| COc1ccc(NC(=O)c2nc3ccccc3s2)cc1 | 9.36 µM |
| Nc1nc2ccccc2n1CCOc1ccccc1Cl | 7.58 µM |
| O=C(c1cc(F)ccc1F)C1CCCN(Cc2ccc3nonc3c2)C1 (stereo not given) | 12.7 µM (inactive) |
| Cc1ccc(NC(C)C(=O)N/N=C/c2ccc([N+](=O)[O-])s2)cc1 (stereo not given) | 5.74 µM |
| Cc1ccc(OCCCCn2ccnc2)c(Cl)c1 | 8.23 µM |
| Cc1cc(Cl)cc(C)c1OCCCCn1ccnc1 | 16.9 µM (inactive) |
| CC(/C=C\C=C\c1ccccc1)=N\NC(=O)c1cncc(Br)c1 | 31.2 µM (inactive) |
| CC(=O)Oc1c(-c2ccc(Br)o2)oc2ccccc2c1=O | 2.86 µM |
| C/C(=N\NC(=O)c1c[nH]c2ccccc12)c1ccccn1 | 6.38 µM |
| CCOC(=O)c1c(-c2ccccc2)csc1NC(=O)CCN1CCOCC1 | 24.4 µM (inactive) |
| CC(C)(C)c1ccc(OCCC(=O)OCC(=O)NC2CC2)cc1 | 23.6 µM (inactive) |
| Cc1cccc(NC(=O)c2cc3ccccc3o2)c1 | 3.23 µM |
| O=C(COc1ccc(Cl)cc1)Nc1ccc2[nH]ncc2c1 | 26.5 µM (inactive) |
| COc1ccc2c(c1)C(=C(C#N)C#N)C(=O)N2CCc1ccccc1 | 25 µM (inactive) |
| Cc1ccc(C(=O)NCCOc2cccc(C)c2)cc1 | 3.92 µM |

| SMILES | IC50 |
| --- | --- |
| Cc1cc(C)c2c(=O)n(CC(=O)Nc3cccc(Cl)c3C)sc2n1 | 7.18 µM |
| O=c1c2c(nc3c(-c4ccccc4)c[nH]n13)CCCC2 | 21.1 µM (inactive) |
| CCOC(=O)CN(C#N)c1nc(N(C)C)nc(N(C)C)n1 | 8.42 µM |
| Clc1c(OCCCn2ccnc2)ccc2ccccc12 | 9.74 µM |
| N#CC1=C(N)Oc2c(ccc3cccnc23)C1c1ccccc1 (stereo not given) | 33.9 µM (inactive) |
| COc1ccc(OCCSc2nnc(Cc3cccc4ccccc34)n2N)cc1 | 23.6 µM (inactive) |
| O=C(Oc1cccnc1)c1ccc(Cl)c(Cl)c1 | 3.86 µM |
| CCOC(=O)c1ccc(NC2OC(=O)c3ccccc32)cc1 (stereo not given) | 3.99 µM |
| O=C(COC(=O)C1CC2C=CC1C2)Nc1ccccc1 (stereo not given) | 35.7 µM (inactive) |
| CCc1cc(C(c2ccncc2)N2CCN(C)CC2)c(NC(=O)c2ccccc2)s1 (stereo not given) | 10.6 µM (inactive) |
| Nc1cccn2c(-c3ccc(Cl)cc3)cnc12 | 8.34 µM |
| CCCCSc1nnc(-c2ccc(C)cc2)o1 | 0.37 µM |
| C=CCc1cc(Cl)ccc1OCCCn1ccnc1 | 8.18 µM |
| CC(=O)Oc1ccc(N2C(=O)c3cccc4c([N+](=O)[O-])ccc(c34)C2=O)cc1 | 0.37 µM |
| O=c1c2cc(Cl)ccc2nc(-c2ccc([N+](=O)[O-])cc2)n1O | 2.2 µM |
| CC(C)Oc1ccc(C(=O)CCN2CCCCC2)cc1 | 6.21 µM |
| CC1=CC2=NC(=O)/C(=C\c3ccc(OC(=O)c4ccco4)cc3)C(=N)N2O1 | 5.99 µM |
| Oc1ccc2cc(Br)ccc2c1CN1CCCC1 | 7.29 µM |
| CCOC(=O)c1c(NC(=O)COC(=O)c2ccccn2)sc2c1CCC2 | 7.87 µM |
| COC(=O)COc1ccc(S(=O)(=O)NCc2ccc3c(c2)OCO3)cc1 | 14.3 µM (inactive) |
| O=C(NCCC1=CCCCC1)c1ccc(F)cc1 | 1.36 µM |
| Cc1ccc(CCC(=O)Nc2ccc(C)c(C)c2)o1 | 8.63 µM |
| CCOC(=O)c1c(NC(C)=O)sc2c(OCC(O)CNC(C)(C)C)c(Br)ccc12 (stereo not given) | 4.44 µM |
| S=C1CN=C(c2ccccc2)c2cc(Cl)ccc2N1 | 8.42 µM |

| SMILES | IC50 |
| --- | --- |
| COc1cccc(NC(=O)COC(=O)Cc2ccc(Br)cc2)c1 | 12.7 µM (inactive) |
| Cc1ccc(NC(=O)C2=C(c3ccccc3)S(=O)(=O)CCS2(=O)=O)cc1 | 2.05 µM |
| Cc1cccc(/C=C/c2onc(C)c2[N+](=O)[O-])n1 | 15 µM (inactive) |
| O=[N+]([O-])c1ccc2nc(-c3ccccn3)[nH]c2c1 | 18.3 µM (inactive) |
| Cc1cccc(C)c1NC(=O)COC(=O)CCc1c[nH]c2ccccc12 | 19.3 µM (inactive) |
| O=C(NCc1ccc(F)cc1)c1cnccn1 | 3.86 µM |
| O=C(CCC1CCCC1)Nc1ccc(Br)cn1 | 3.88 µM |
| Cn1c(SCCOc2cccc(Cl)c2)nnc1-c1ccncc1 | 11.4 µM (inactive) |
| Nc1nnnn1/N=C/C(Br)=C/c1ccccc1 | 13.5 µM (inactive) |
| O=C(NCCC1=CCCCC1)c1ccc(Br)o1 | 2.31 µM |
| CC(C)C(=O)Nc1cccc(-c2nc3ccccc3c(=O)o2)c1 | 3.79 µM |
| CC(C)=CCN1CCN(Cc2cn(C(C)C)c3ccccc23)CC1CCO (stereo not given) | 22.1 µM (inactive) |
| O=C(Nc1ccc(Cl)cn1)C1COc2ccccc2O1 (stereo not given) | 3.32 µM |
| Cc1ccccc1N1CCN(Cc2ccc([N+](=O)[O-])o2)CC1 | 3.25 µM |
| FC(F)(F)c1nc(SCc2ccc(Cl)cc2Cl)n[nH]1 | 4.69 µM |
| CCOC(=O)Cc1c(C)nc2c(-c3ccc(Cl)cc3)c[nH]n2c1=O | 3.93 µM |
| O=c1[nH]c2ccccc2c2oc(CCl)nc12 | 4.22 µM |
| CCOC(=O)Cc1ccc(NCc2ccc(Cl)cc2)cc1 | 10.8 µM (inactive) |
| O=C1CCC/C(=N/Nc2ccc(Cl)cc2)C1 | 3.72 µM |
| O=C1CC(N2CCN(Cc3ccccc3)CC2)C(=O)N1CCc1ccccc1 (stereo not given) | 22.3 µM (inactive) |
| COC(=O)C1=C(C(=O)OC)C(c2cc(Cl)ccc2O)c2sc(=O)[nH]c2S1 (stereo not given) | 34.9 µM (inactive) |
| CCn1c(O)c(C(=O)CC2NCCc3ccccc32)c(=O)n(CC)c1=S (stereo not given) | 21.8 µM (inactive) |
| CC(C)=CC1C(C(=O)Nc2ccc(Br)cn2)C1(C)C (stereo not given) | 3.57 µM |
| COc1ccccc1-c1nnc(-c2ccc(C)cc2)o1 | 6.42 µM |

| SMILES | IC50 |
| --- | --- |
| O=C(CCCOc1ccccc1)OCn1nnc2ccccc2c1=O | 24.8 µM (inactive) |
| CC(=O)OCCNc1cc(SCc2ccco2)c2nonc2c1[N+](=O)[O-] | 3.04 µM |
| Cc1ccc(OCC(=O)N/N=C/c2ccc([N+](=O)[O-])o2)cc1 | 2.89 µM |
| NC(=O)N=Nc1c2[nH]c3ccccc3nc-2c2ccccc12 | 9.06 µM |
| CCOc1ccc(NC(=O)COC(=O)C2(C)CC2(Cl)Cl)c([N+](=O)[O-])c1 (stereo not given) | 10.8 µM (inactive) |
| Cc1ccc(C(=O)Oc2cccc(-n3cnnn3)c2)cc1 | 25.3 µM (inactive) |
| Cc1ccc(-c2noc(CCCC(=O)Nc3cccnc3)n2)cc1 | 7.61 µM |
| O=C(Nc1nnc(-c2ccccn2)o1)c1cccc(Cl)c1 | 11.4 µM (inactive) |
| Nc1ccc2c(c1)oc1ccccc12 | 2.05 µM |
| Cc1cc(OCCCn2ccnc2)ccc1C(C)C | 9.17 µM |
| C#CCSc1nnc(-c2ccc(O)cc2)o1 | 7.34 µM |
| CC(=O)OCCNc1cc(Sc2nc3ccccc3[nH]2)c2nonc2c1[N+](=O)[O-] | 2.41 µM |
| COc1cccc(C(=O)OCC(=O)Nc2nnc(-c3ccccc3)o2)c1 | 22.8 µM (inactive) |
| CS/C(Nc1cc(Cl)ccc1Cl)=C(/C#N)C(=O)c1ccco1 | 1.5 µM |
| Brc1ccc(OCCCCN2CCCCC2)cc1 | 41.7 µM (inactive) |
| O=C(c1cc2ccccc2o1)N1CCN(Cc2ccccc2)CC1 | 7.64 µM |
| O=C(CCC(=O)Nc1ccc(Cl)cc1Cl)N/N=C/c1ccc([N+](=O)[O-])o1 | 2.18 µM |
| CCOC(=O)C1(O)CC(C)=NN1C(=O)c1cccc(Br)c1 (stereo not given) | 1.42 µM |
| CCCNC(=O)N1CCC(c2ccc3c(c2)OCO3)CC1 | 4.71 µM |
| O=C1OC(/C(=C\Nc2cc(Cl)ccc2O)[N+](=O)[O-])c2ccccc21 (stereo not given) | 7.86 µM |
| O=C(Nc1nnc(-c2ccc(F)cc2)o1)c1cc(Cl)sc1Cl | 7.95 µM |
| COc1cccc2[nH]c3c(Cl)ncnc3c12 | 17.4 µM (inactive) |
| Cc1nc(-c2ccc(C(F)(F)F)cc2)sc1C(=O)NN | 23.5 µM (inactive) |
| NC(=O)c1ccc(-c2ccc(Br)cc2)o1 | 1.93 µM |
